Assay results published in PMC6873218, “Functional Expression of Multidrug Resistance Protein 4 MRP4/ABCC4” (Slas Discovery, 2019).

Target: T1, Multidrug resistance protein 4 (MRP4/ABCC4) (Homo sapiens, UniProt O15439)
T1 construct: recombinant human MRP4-his6 in Sf9 membrane vesicles
T1 sequence (O15439 1-1325): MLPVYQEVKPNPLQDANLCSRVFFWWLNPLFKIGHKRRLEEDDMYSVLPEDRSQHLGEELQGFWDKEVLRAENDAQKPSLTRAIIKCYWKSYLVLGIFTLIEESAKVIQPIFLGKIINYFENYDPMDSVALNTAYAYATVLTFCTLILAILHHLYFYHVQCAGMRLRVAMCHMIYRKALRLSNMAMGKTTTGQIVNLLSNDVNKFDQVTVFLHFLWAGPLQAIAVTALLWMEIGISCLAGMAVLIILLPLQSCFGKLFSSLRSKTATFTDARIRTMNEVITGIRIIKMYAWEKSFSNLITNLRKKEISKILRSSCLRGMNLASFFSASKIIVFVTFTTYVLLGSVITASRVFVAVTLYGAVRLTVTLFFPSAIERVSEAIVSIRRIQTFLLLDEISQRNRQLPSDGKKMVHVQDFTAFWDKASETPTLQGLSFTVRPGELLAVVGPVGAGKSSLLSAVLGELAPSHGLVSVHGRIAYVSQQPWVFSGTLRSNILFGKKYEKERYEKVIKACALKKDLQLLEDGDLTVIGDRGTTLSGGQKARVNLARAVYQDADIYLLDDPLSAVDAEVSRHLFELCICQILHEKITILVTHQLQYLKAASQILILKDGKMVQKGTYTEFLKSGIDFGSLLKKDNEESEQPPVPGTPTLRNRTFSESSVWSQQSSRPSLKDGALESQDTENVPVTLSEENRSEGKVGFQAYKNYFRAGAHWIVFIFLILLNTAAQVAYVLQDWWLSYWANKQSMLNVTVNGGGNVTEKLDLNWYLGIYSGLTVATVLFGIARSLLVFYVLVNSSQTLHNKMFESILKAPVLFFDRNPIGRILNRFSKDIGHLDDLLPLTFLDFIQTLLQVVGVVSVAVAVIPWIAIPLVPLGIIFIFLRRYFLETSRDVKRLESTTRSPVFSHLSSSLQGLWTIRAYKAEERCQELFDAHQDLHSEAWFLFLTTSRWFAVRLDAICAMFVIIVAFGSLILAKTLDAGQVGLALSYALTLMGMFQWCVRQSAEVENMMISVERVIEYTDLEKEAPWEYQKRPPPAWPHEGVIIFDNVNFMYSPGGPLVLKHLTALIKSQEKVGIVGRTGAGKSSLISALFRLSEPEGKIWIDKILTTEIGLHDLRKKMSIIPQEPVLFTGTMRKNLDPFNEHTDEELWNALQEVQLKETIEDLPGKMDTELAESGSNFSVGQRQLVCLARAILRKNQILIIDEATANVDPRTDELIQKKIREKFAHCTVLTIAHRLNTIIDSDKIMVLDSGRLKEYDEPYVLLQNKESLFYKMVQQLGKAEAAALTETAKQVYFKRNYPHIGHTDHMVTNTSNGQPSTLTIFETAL
Experiment: fluorescent vesicular transport assay, ATP-dependent uptake in Sf9 MRP4 membrane vesicles against control vesicles (Km)
Format: biochemical

## 8-(2-[fluoresceinyl]aminoethylthio)adenosine-3′,5′-cyclic monophosphate [fluo-cAMP]
  Km: 5.8 µM
